Laboratory results taken from PubChem BioAssay AID652102 (NMMLSC, 2013).

Molecular target: Botulinum neurotoxin type A (Clostridium botulinum (strain Hall / ATCC 3502 / NCTC 13319 / Type A)) (UniProt P0DPI1)
Experiment: BoNT/A light chain protease inhibitors, confirmation, biochemical, FRET, full-length substrates, powder set 1 (AID 652102)
Conditions: BoNT/A LC protease, FRET full-length substrate cleavage

Sequence of Botulinum neurotoxin type A (Clostridium botulinum (strain Hall / ATCC 3502 / NCTC 13319 / Type A)) (P0DPI1 whole entry, looked up): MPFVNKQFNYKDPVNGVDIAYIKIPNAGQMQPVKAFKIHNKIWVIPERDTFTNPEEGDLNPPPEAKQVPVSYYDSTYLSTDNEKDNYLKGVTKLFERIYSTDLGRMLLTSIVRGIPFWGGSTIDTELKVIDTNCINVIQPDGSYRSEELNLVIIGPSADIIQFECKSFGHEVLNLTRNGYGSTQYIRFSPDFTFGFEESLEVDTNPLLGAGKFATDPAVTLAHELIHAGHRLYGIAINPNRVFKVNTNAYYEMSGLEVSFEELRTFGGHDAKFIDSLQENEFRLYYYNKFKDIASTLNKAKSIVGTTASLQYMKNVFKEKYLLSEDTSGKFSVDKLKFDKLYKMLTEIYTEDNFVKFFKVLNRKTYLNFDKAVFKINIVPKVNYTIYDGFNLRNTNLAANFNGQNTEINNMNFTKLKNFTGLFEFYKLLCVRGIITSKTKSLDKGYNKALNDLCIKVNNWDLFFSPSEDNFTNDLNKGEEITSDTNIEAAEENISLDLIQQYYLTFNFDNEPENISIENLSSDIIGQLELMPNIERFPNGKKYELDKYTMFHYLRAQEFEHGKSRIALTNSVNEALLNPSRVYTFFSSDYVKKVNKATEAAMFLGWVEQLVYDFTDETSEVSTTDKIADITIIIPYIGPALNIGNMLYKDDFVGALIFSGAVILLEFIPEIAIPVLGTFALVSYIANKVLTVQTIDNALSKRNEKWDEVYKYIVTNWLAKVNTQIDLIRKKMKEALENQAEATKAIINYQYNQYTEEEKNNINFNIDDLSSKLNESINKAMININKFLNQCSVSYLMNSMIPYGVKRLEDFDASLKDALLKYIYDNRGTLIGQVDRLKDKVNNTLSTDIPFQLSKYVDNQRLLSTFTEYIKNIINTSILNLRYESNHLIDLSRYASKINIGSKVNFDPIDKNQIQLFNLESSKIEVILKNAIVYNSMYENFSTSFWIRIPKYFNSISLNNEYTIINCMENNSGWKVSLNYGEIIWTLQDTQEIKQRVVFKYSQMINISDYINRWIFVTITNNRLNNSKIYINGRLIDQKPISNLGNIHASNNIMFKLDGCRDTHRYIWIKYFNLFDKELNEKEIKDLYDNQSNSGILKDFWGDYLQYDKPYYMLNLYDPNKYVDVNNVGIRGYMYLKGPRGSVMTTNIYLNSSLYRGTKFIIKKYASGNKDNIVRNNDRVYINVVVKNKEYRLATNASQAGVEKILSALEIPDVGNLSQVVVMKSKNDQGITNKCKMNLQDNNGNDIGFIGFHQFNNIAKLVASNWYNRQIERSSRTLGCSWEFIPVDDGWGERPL

c1ccc(-c2cn3nc(-c4ccccc4)c(-c4ccccc4)nc3n2)cc1
IC50: 600 nM
